Measurements published in patent publication US20160220582A1, “COMBINATION OF LUPEOL ACETATE AND CURCUMIN USED FOR THE TREATMENT OR PREVENTION OF ACTIVATED OSTEOCLAST PRECURSOR ASSOCIATED DISORDERS” (priority 2015, published 2016).

Assays:
[1] = test system: collagen-induced arthritis (CIA) mice; experiment: Histopathology of joints (H & E stain) in CIA mice; assay type: in vivo, DBA/1J mice; settings: day 43
From the text: To investigate the therapeutic efficacy of LA combined with curcumin on the histological damage in CIA mice, the mice were scarified on day 43 after arthritis induction. The joints of four limb of each mouse were excised and fixed with paraformaldehyde then embedded by paraffin and sectioned. Slides were stained with haematoxylin and eosin (H & E), and were observed under microscope.

[2] = clinical application; cited from earlier work
arthritis = settings: mice; cited from earlier work
[3] = test system: collagen-induced arthritis (CIA) mice; experiment: 18F-FDG PET of joints in CIA mice; assay type: in vivo, DBA/1J mice
From the text: Apart from blood analysis, current clinical diagnosis will also use X-ray as an evaluation basis. Since X-ray image can only diagnose rheumatoid arthritis when the bone has been damaged severely at late stage, it could not be an effective evaluation tool. ^18F-FDG can be used as a tracer to observe and evaluate its accumulation during rheumatoid arthritis.
Repeated ^18F-FDG PET in vivo determination of disease severity in knee joints and paws on 20, 25, 32, 39 and 43 days after arthritis induction. Mice were anesthetized using 1-3% isoflurane and were intravenous injected with 0.5 mCi/100 μl (18.5 MBq) of ^18F-FDG 40 min before images acquisition. The emission scans were performed using an animal micro/PET scan (Tri-Modality FLEX Triumph™ Pre-Clinical Imaging System). All images were acquired for 40 min and reconstructed by software supplied by the manufacturer. The ROIs were selected, and the accumulation of ^18F-FDG of each ROI was further analyzed by Amide software.

[4] = Body weight tracking in CIA mice; assay type: in vivo
Procedure: Eight-week-old DBA/1J mice (purchased from Jackson lab, ME, USA and housed in the Animal center of National Yang Ming University under pathogen-free conditions according to the Institutional Animal Care and Committee guidelines) were used. 100 μl of arthritis-inducing adjuvant (prepared by mixing Complete Freund's Adjuvant (5 mg/ml heat-killed M. tuberculosis in incomplete Freund's Adjuvant) (Chondrex, WA, USA) with equal volume of bovine type II collagen (2 mg/ml solution in 0.05 M acetic acid) (Chondrex, WA, USA)) is injected into the dermis of tail (intra-dermal, i.d.) using a 30 G syringe; and a 50 μl second dose of same ingredients is injected in the same way at an interval of 21 days. The symptoms are produced at about six days after the second dose injection, with an induction rate of 100%. The CIA mice were established and treated with LA 25 mg/kg alone, LA 50 mg/kg alone, Cur 50 mg/kg alone and LA 25 mg/kg+Cur 50 mg/kg after second immunization once per day. Using animals treated with deionized distilled water (ddH2O) containing 0.1% dimethyl sulfoxide (DMSO, Sigma, USA) as the normal mice group. Signs of arthritis were monitored until Day 43.

[5] = test system: collagen-induced arthritis (CIA) mice; experiment: Micro-CT bone density of femur in CIA mice; assay type: in vivo, DBA/1J mice; settings: day 32, 39 and 43
Procedure: Micro-CT images were acquired from the Tri-Modality FLEX Triumph™ Pre-Clinical Imaging System (Gamma MedicaIdeas; Northridge, Calif.). The ROI was analyzed visually in three different slices: transverse, coronal, and sagittal. Individual ROI was used to create 3D representations of the bones of interest. For each specific bone ROI, the total number of pixels and mean pixel intensity across all slices were used to measure bone volume and density.

[6] = test system: inflammatory condition induced by carrageenan; settings: mice; Lucetti et al. 2010; cited from earlier work
NF-κB = experiment: Ex vivo electrophoretic mobility shift assay (EMSA); assay type: in vivo, DBA/1J mice
Procedure: The LightShift Chemiluminescent EMSA kit (Pierce, Rockford, Ill., USA) was used in the analysis for NF-κB/DNA binding activity. Nuclear extracts were incubated with the biotin labeled DNA probes at room temperature for 20 minutes. The separated DNA/protein complexes from the free oligonucleotide on 10% polyacrylamide gel were transferred to a nylon membrane. The nylon membrane was immersed in ECL (Pierce, Rockford, Ill., USA) and reacted to emit cold light (luminescence), and then exposed to the film for the observation of NF-κB activity. Using IMAGE J software (National Institutes of Health), the obtained images were quantified to blackening degree; the blackening degree of the protein to be observed is divided by the value obtained in the control group to compare the differences of each group in the expression level of nuclear proteins.

RAW 264.7 cells = experiment: MTT cell viability assay; settings: RAW264.7, 24 h; LA 10-80 μM, Cur 2.5-10 μM, 10 μM Cur+10-80 μM LA
Procedure: RAW 264.7 cells (a mouse macrophage cell line) were treated with different concentrations of lupeol acetate (10, 20, 40, 80 μM), curcumin (2.5, 5, 7.5, 10 μM) and combination (10 μM Cur+10 μM LA, 10 μM Cur+20 μM LA, 10 μM Cur+40 μM LA, 10 μM Cur+80 μM LA) for 24 h.
5×10^4 RAW264.7 cells/well were seeded in 96-well culture dishes, and treated with directed concentration of lupeol acetate (LA), curcumin (Cur) and combination for 24 hours after the 24-hr attachment. After removing the culture medium, 100 μl of 0.5 mg/ml MTT solution was added, and the cells were incubated at 37° C. for 4 hours. The mitochondrial enzyme (succinate dehydrogenase, SDH) in living cells will react with tetrazolium bromide in the MTT solution and form formazan blue-purple crystals. The MTT solution was removed and 200 μl DMSO was added to dissolve the blue-purple crystal, and then the O.D. (optical density) value was read under wavelength of 570 nm with an ELISA reader (TECAN Sunrise, USA). The relative cell viability is calculated by comparing the absorbance value of drug treated group with that of the control group (setting the value of control group as 100%).

rheumatoid arthritis = settings: mice; high doses (100 mg/kg, 12 days) necessary; US 20120177754; cited from earlier work
[7] = test system: collagen-induced arthritis (CIA) mice; experiment: Ex vivo Western blotting of leg proteins of CIA mice; assay type: in vivo, DBA/1J mice; settings: day 32
Procedure: The mice were sacrificed by cervical dislocation on the 32nd day of the animal experiment. The whole leg of mouse was removed, and the leg tissue was ground by adding an appropriate amount of lysis buffer (tissue protein extraction reagent, T-PER, Pierce Protein Biology Products, IL, USA), centrifuged at 15,000 rpm for 20 minutes, and the supernatant is taken as the sample for each group.
Mice were sacrificed at the peak of arthritis (on day 32), the protein extraction was isolated from legs of each group.

Compound	histopathology of joints: immune cell infiltration and cartilage destruction ([1]; 50 mg/kg)	bioavailability [2]	occurrence of inflammation and progression of arthritis (arthritis)	18F-FDG accumulation in knee and tarsal joint / leg swelling ([3]; 50 mg/kg alone)	tolerability / general toxicity ([4]; mouse, in vivo)	bone density of femur vs CIA mice [5]	histopathology of joints: immune cell infiltration and cartilage destruction ([1]; 25 mg/kg)	inflammatory condition induced by carrageenan [6]	activation of NF-κB (NF-κB; LA25 (25 mg/kg))	activation of NF-κB (NF-κB; LA50 (50 mg/kg))	18F-FDG accumulation in knee and tarsal joint / leg swelling ([3]; 25 mg/kg alone)	cytotoxic effects, cell viability (MTT) (RAW 264.7 cells)	tolerability / general toxicity ([4]; CIA mice, throughout the experimental period)	inhibiting inflammation and treatment of rheumatoid arthritis (rheumatoid arthritis)	arthritis-related proteins ([7]; LA25 (25 mg/kg))	arthritis-related proteins ([7]; LA50 (50 mg/kg))
COc1cc(/C=C/C(=O)CC(=O)/C=C/c2ccc(O)c(OC)c2)ccc1O [Cur, curcumin]	moderate immune cell infiltration and cartilage destruction	poor bioavailability	inhibit	still have leg swelling on one side	well-tolerated	significantly higher										
lupeol acetate [LA]	no inflammation and cartilage destruction					significantly higher	moderate immune cell infiltration and cartilage destruction	effectively mitigate	significantly suppressed	significantly suppressed	still have leg swelling on one side	no cytotoxic effects	well-tolerated	significant therapeutic effect	improvement	improvement
